Reference: patent US20230331649A1, “INHIBITORS OF PROTEIN FUCOSYLATION AND USES THEREOF” (SIMON FRASER UNIVERSITY, priority 2020, published 2023)

Assays:
[1] = system: CHO K1 cells; experiment: Cell-based fucosylation assay, fluorescein-AAL lectin staining of CHO K1 cells; parameters: species or system Chinese hamster; details: Cricetulus griseus, 120 h, five days with inhibitor, 3.2 nM-100 μM, AAL lectin fluorescence normalized to DMSO vehicle
Procedure: CHO K1 cells were grown in a T175 flask, in F12 medium supplemented with 10% […], at 37° C., 5% CO2. 350 cells were seeded in every well of a 384-well plate (Corning 4680, 45 μL final) and incubated at 37° C. overnight. Inhibitors were stored as 20 mM stock solution in DMSO. Inhibitors were diluted to the desired concentration in CHO cells culture medium and were dispensed into the wells of the plate (50 μL final well volume). An equivalent amount of DMSO (vehicle) was dispensed into control wells. Cells were incubated in the presence of inhibitors for five days. Following treatment, the culture medium was removed and cells were washed four times with 60 μL of PBS-T using a combination washer/dispenser (EL406, Biotek). 50 μL of 4% PFA in PBS-T was then dispensed into the plate and cells were incubated for 15 min at room temperature before being washed four times with 60 μL of PBS-T. Cells were subsequently incubated for 45 minutes at room temperature with 5% Bovine Serum Albumin (BSA) in PBS-T to prevent non-specific lectin binding. The BSA solution was then replaced by 50 μL of a solution of 5 μg/mL of Fluorescein-conjugated Aleuria Aurentia Lectin (AAL) (Vector Laboratories) and cells were kept at room temperature in the dark for 1 h. Negative controls were co-incubated with AAL and 100 mM fucose as a lectin antagonist. Cells were subsequently washed four times with 60 μL PBS-T. Then, 50 μL of 1 μg/mL Hoechst solution in PBS was dispensed into each well and cells were directly imaged using an ImageXpress MicroXLS high content microscope (Molecular Devices). Four sites per wells were imaged using DAPI and FITC channels (50 ms and 300 ms exposure respectively). Images were processed using MetaXpress software. Briefly, for each site, the integrated average fluorescence was quantified and normalized for the corresponding number of cells determined with nuclear staining. Results from each site were combined to provide a single value for each well. At least four independent wells were imaged for each condition providing four biological replicates. IC50 curves were plotted using GraphPad Prism. Results were normalized on the average value for vehicle wells (DMSO treated).
We assessed the potency of carbafucose and selected analogs through dose-response experiments over a 3.2 nM-100 μM range of concentrations in the cell-based assay. The cell-based fucosylation antagonist 2-deoxy-2-fluoro-L-fucose (2FFuc) was used as a control (FIGS. 1A-D).

[2] = system: Expi-CHO cells; experiment: Glycan analysis of HER2 antibody from compound-treated Expi-CHO cells (PNGaseF release, CE-LIF); format: cell-based, Chinese hamster; details: 0.1 mM compound added a day after transfection with HER2 antibody, harvested after 8 days, released glycans by CE-LIF; for Glycan A2 (alt name G0) (%): non-fucosylated glycan
Procedure: Expi-CHO cells were treated with compounds 16, 7, 9, 13, 6, 8, 14 and 15 at 0.1 mM (final conc.) a day after transfection with HER2 antibody. The transfected cells were harvested after 8 days and purified HER2 antibodies were deglycosylated using PNGaseF and the released glycans were purified and analyzed by capillary electrophoresis-laser-induced fluorescence (CE-LIF).

| Compound | IC50 [1] [µM] | Glycan A2BG2 (alt name G2B) (%) [2] [%] | Glycan FA2(3)G1 (alt name G1′F) (%) [2] [%] | Glycan FA2(6)G1 (alt name G1F) (%) [2] [%] | Glycan FA2(6)G1S1 (alt name G1FS1) (%) [2] [%] | Glycan FA2 (alt name G0F) (%) [2] [%] | Glycan FA2G2S1 (alt name G2FS1) (%) [2] [%] | Glycan FA2G2S2 (alt name G2FS2) (%) [2] [%] | Glycan A2 (alt name G0) (%) [2] [%] |
| --- | --- | --- | --- | --- | --- | --- | --- | --- | --- |
| C=C[C@@H]1C[C@H](O)[C@@H](O)[C@H](O)[C@@H]1O [1-42] | 137 ± 79 | – | – | – | – | – | – | – | – |
| C[C@@H]1C[C@H](OP(=O)(O)O)[C@@H](O)[C@H](O)[C@@H]1O [2-3] | 39.5 ± 30.3 | – | – | – | – | – | – | – | – |
| C[C@@H]1OC(O)[C@@H](F)[C@H](O)[C@@H]1O (stereo partly drawn) [2FFuc, 2-deoxy-2-fluoro-L-fucose, reference compound] | 137 ± 79 | – | – | – | – | – | – | – | – |
| CC1=C[C@H](O)[C@@H](F)[C@H](O)[C@@H]1O [Compound 6] | – | 0.8 | 0.6 | 4.1 | 0.8 | 77.7 | 15.9 | 0.0 | 0.0 |
| CC(=O)O[C@H]1[C@H](F)[C@@H](OC(C)=O)C=C(C)[C@H]1OC(C)=O [Compound 7] | – | 0.0 | 0.0 | 3.9 | 0.0 | 79.5 | 16.6 | 0.0 | 0.0 |
| CC1C[C@H](O)[C@@H](F)[C@H](O)[C@@H]1O (stereo partly shown) [Compound 8] | – | 0.0 | 0.0 | 3.9 | 0.0 | 79.3 | 16.8 | 0.0 | 0.0 |
| CC(=O)O[C@H]1[C@H](F)[C@@H](OC(C)=O)CC(C)[C@H]1OC(C)=O (stereo partly shown) [Compound 9] | – | 0.8 | 0.0 | 3.9 | 0.0 | 78.9 | 16.4 | 0.0 | 0.0 |
| CC1=C[C@H](O)[C@@H](O)[C@H](O)[C@@H]1O [Compound 13] | – | 0.8 | 0.0 | 3.9 | 0.9 | 77.3 | 17.0 | 0.0 | 0.0 |
| CC1C[C@H](O)[C@@H](O)[C@H](O)[C@@H]1O (stereo partly shown) [Compound 15] | – | 0.0 | 0.0 | 0.0 | 17.2 | 8.8 | 0.0 | 3.3 | 70.6 |
| C[C@@H]1C[C@H](O)[C@@H](O)[C@H](O)[C@@H]1O [carbafucose] | 16.1 ± 7.7 | – | – | – | – | – | – | – | – |
